Experimental data published in patent US8815535B2, “Disk diffusion assay for oritavancin” (The Medicines Company, priority 2011, dated 2014).
Like-named read-outs stand apart in the source and are kept apart here.

Key:
S. aureus isolates = assay: Disk diffusion assay, panel of isolates; type: cell-based, Staphylococcus aureus
Description: (§1) The study was designed to identify conditions that improve oritavancin diffusion in agar and consequently yield a zone diameter ≧15 mm for the CLSI quality control strain MSSA ATCC 25923. Excipients that increased the disk diffusion of oritavancin in agar relative to disks containing only oritavancin were identified and selected for further study. […] A prediffusion step at room temperature was introduced to maximize oritavancin diffusion prior to initiation of bacterial growth. In this step, the antimicrobial disks were placed on agar plates seeded with a bacterial isolate and incubated at room temperature for 3 hours. Plates were then incubated overnight at 37° C. Zone diameters around the disks in which bacterial growth was inhibited were measured with a ruler and reported in millimeters.
(§2) Ethanol-sterilized Whatman paper disks (6 mm diameter) were allowed to dry then impregnated with 20 microliters of oritavancin solution containing total amounts ranging from 90 to 360 micrograms. Disks were allowed to dry at room temperature for various times prior to use.
(§3) Bacterial suspensions were prepared and adjusted to an optical density of 0.1 at 600 nm. Standard cation-adjusted Mueller Hinton agar plates (90 mm diameter) were seeded with bacterial suspensions by initially swabbing the center of plate then moving outward towards the edge. The plate was swabbed a second time, perpendicular to the orientation of the first swab. To assess the impact of prediffusion on diameter of inhibition zones, two disks were immediately placed on one half of the plate and the plate was incubated for 3 hours at room temperature. After 3 hours, two additional disks were placed on the other half of the plate then the plate was incubated overnight at 37° C. Zone diameters were measured with a ruler and reported in millimeters.
(§4) Oritavancin powder was dissolved in freshly-prepared solutions of the indicated excipients at concentrations of 0.625, 1.25, 2.5, 5, and 10 mg/ml (adjusted for potency based on lot 875561L00 purity of 83.1%) by vortexing for a minimum of 5 minutes. Oritavancin solutions in the various excipients, while not visually clear, were free from any apparent particulates as assessed visually. Sterile Oxoid blank disks were impregnated with 20 μl of these oritavancin solutions, resulting in oritavancin disk loads ranging from 12.5 to 200 μg. Unless indicated otherwise, disks were allowed to dry overnight at room temperature prior to use.
(§5) Bacterial suspensions from isolated colonies on overnight cation-adjusted Mueller Hinton agar plates were prepared in sterile saline and adjusted to an optical density of 0.1 at 600 nm Standard cation-adjusted Mueller Hinton agar plates (90 mm diameter) were seeded with bacterial suspensions by initially swabbing the center of plate then moving outward. Swabbing was continued at a right angle and then at an oblique angle to the first and second swabs. Disks were placed upon the seeded plates with sterile forceps. Plates were then incubated overnight at 37° C. and inhibition zone diameters were measured with a ruler and reported in millimeters.

MRSA NRS121 = assay: Disk diffusion assay (zone of inhibition); type: cell-based; settings: Staphylococcus aureus, read-out: Zone diameter (mm ± SD), NRS121, 360 μg in 5% P80
Description: as §1, §2, §3

MSSA T972018 = assay: Disk diffusion assay (zone of inhibition); type: cell-based; settings: Staphylococcus aureus, read-out: Zone diameter (mm ± SD)
Description: as §1, §2, §3

MRSA NRS123-ORI^RS = assay: Disk diffusion assay (zone of inhibition); type: cell-based; settings: Staphylococcus aureus, read-out: Zone diameter (mm ± SD)
Description: as §1, §2, §3

MRSA NRS121-ORI^RS = assay: Disk diffusion assay (zone of inhibition); type: cell-based; settings: Staphylococcus aureus, read-out: Zone diameter (mm ± SD)
Description: as §1, §2, §3

MRSA NRS123 = assay: Disk diffusion assay (zone of inhibition); type: cell-based; settings: Staphylococcus aureus; for zone of inhibition at 90 µg/disc: 90 μg oritavancin; for zone of inhibition at 180 µg/disc: 180 μg oritavancin
Description: as §1, §2, §3

VISA Mu50 (ATCC 700699) = assay: Disk diffusion assay (zone of inhibition); type: cell-based; settings: Staphylococcus aureus, Oxoid disks, 20 μl of 18 mg/ml oritavancin in 5% P80, stored 30 days at room temperature, prediffusion 6 hours at 4° C., read-out: Inhibition zone diameter
MRSA U784439 = assay: Disk diffusion assay (zone of inhibition); type: cell-based; settings: Staphylococcus aureus, 20 μl of 1.25 mg/ml in 4% P80/Span 80 (1:1), calcium alginate swabs, dried overnight, duplicate, read-out: Inhibition zone diameter
Method: as §4, §5

MSSA T759545 = assay: Disk diffusion assay (zone of inhibition); type: cell-based; settings: Staphylococcus aureus, 20 μl of 1.25 mg/ml in 4% P80/Span 80 (1:1), calcium alginate swabs, dried overnight, duplicate, read-out: Inhibition zone diameter
Method: as §4, §5

MRSA V406957 = assay: Disk diffusion assay (zone of inhibition); type: cell-based; settings: Staphylococcus aureus, 20 μl of 1.25 mg/ml in 4% P80/Span 80 (1:1), calcium alginate swabs, dried overnight, duplicate, read-out: Inhibition zone diameter
Method: as §4, §5

MRSA T998608 = assay: Disk diffusion assay (zone of inhibition); type: cell-based; settings: Staphylococcus aureus, 20 μl of 1.25 mg/ml in 4% P80/Span 80 (1:1), calcium alginate swabs, dried overnight, duplicate, read-out: Inhibition zone diameter
Method: as §4, §5

MSSA V406985 = assay: Disk diffusion assay (zone of inhibition); type: cell-based; settings: Staphylococcus aureus, 20 μl of 1.25 mg/ml in 4% P80/Span 80 (1:1), calcium alginate swabs, dried overnight, duplicate, read-out: Inhibition zone diameter
Method: as §4, §5

MSSA U148267 = assay: Disk diffusion assay (zone of inhibition); type: cell-based; settings: Staphylococcus aureus, 20 μl of 1.25 mg/ml in 4% P80/Span 80 (1:1), calcium alginate swabs, dried overnight, duplicate, read-out: Inhibition zone diameter
Method: as §4, §5

MRSA T998528 = assay: Disk diffusion assay (zone of inhibition); type: cell-based; settings: Staphylococcus aureus, 20 μl of 1.25 mg/ml in 4% P80/Span 80 (1:1), calcium alginate swabs, dried overnight, duplicate, read-out: Inhibition zone diameter
Method: as §4, §5

MRSA V288615 = assay: Disk diffusion assay (zone of inhibition); type: cell-based; settings: Staphylococcus aureus, 20 μl of 1.25 mg/ml in 4% P80/Span 80 (1:1), calcium alginate swabs, dried overnight, duplicate, read-out: Inhibition zone diameter
Method: as §4, §5

MRSA ATCC 33591 = assay: Disk diffusion assay (zone of inhibition); type: cell-based; settings: Staphylococcus aureus, 25 μg (1.25 mg/ml) in 4% P80/Span 80 (1:1), dried overnight, read-out: Inhibition zone diameter
Method: as §4, §5

[1] = 360 μg in 5% P80, Experiment 2, disks stored 8 days, 3 h prediffusion at room temperature
[2] = 192 h, 360 μg in 5% P80, Experiment 2, disks stored 8 days, no prediffusion
[3] = 360 μg in 5% P80, Average, no prediffusion
[4] = 360 μg in 5% P80, Average, prediffusion
[5] = 192 h, 2.5% P80, disks stored 8 days, prediffusion, read-out: Average zone diameter
[6] = 336 h, 5% P80, disks stored 14 days, prediffusion, read-out: Average zone diameter
[7] = 336 h, 10% P80, disks stored 14 days, prediffusion, read-out: Average zone diameter

CN[C@H](CC(C)C)C(=O)N[C@H]1C(=O)N[C@@H](CC(N)=O)C(=O)N[C@H]2C(=O)N[C@H]3C(=O)N[C@H](C(=O)N[C@H](C(=O)O)c4cc(O)cc(O)c4-c4cc3ccc4O)[C@H](O[C@H]3C[C@](C)(N)[C@@H](O)[C@H](C)O3)c3ccc(c(Cl)c3)Oc3cc2cc(c3O[C@@H]2O[C@H](CO)[C@@H](O)[C@H](O)[C@H]2O[C@H]2C[C@](C)(NCc3ccc(-c4ccc(Cl)cc4)cc3)[C@@H](O)[C@H](C)O2)Oc2ccc(cc2Cl)[C@H]1O [oritavancin, N-(4-(4-chlorophenyl)benzyl)A82846B]
Zone diameter smaller for the two reduced-susceptibility isolates compared to MSSA and MRSA isolates exhibiting the same BMD MICs (S. aureus isolates; 360 μg in 5% P80): approximately 2 mm | Average increase of zone diameter by prediffusion (S. aureus isolates; MSSA and MRSA strains, 360 μg in 5% P80): approximately 2.5 mm | zone of inhibition at 1250 µg/mL (S. aureus isolates; Staphylococcus aureus, 19 wild-type clinical isolates, 20 μl of 1.25 mg/ml in 4% P80/Span 80 (1:1), calcium alginate swabs, read-out: Inhibition zone diameters): 20 to 24 mm | Average increase of zone diameter by prediffusion (S. aureus isolates; VISA and oritavancin reduced-susceptibility isolates, 360 μg in 5% P80): approximately 1.1 mm | Zone diameters (S. aureus isolates; many S. aureus strains, different combinations of the alterations to the traditional assay): > 15 mm | zone of inhibition at 360 µg/disc (MRSA NRS121; 192 h, Experiment 2, disks stored 8 days, no prediffusion): 15 mm | zone of inhibition at 360 µg/disc (MRSA NRS121; Average, no prediffusion): 15 mm | zone of inhibition at 360 µg/disc (MRSA NRS121; Average, prediffusion): 17.3 ± 0.4 mm | zone of inhibition at 360 µg/disc (MRSA NRS121; Experiment 2, disks stored 8 days, 3 h prediffusion at room temperature): 17.3 ± 0.4 mm | zone of inhibition at 360 µg/disc (MSSA T972018; 360 μg in 5% P80, Average of experiments, no prediffusion): 15 ± 0.6 mm | zone of inhibition at 360 µg/disc (MSSA T972018; 360 μg in 5% P80, Average of experiments, prediffusion): 17.4 ± 0.3 mm | zone of inhibition at 360 µg/disc (MSSA T972018; 360 μg in 5% P80, Experiment 1, disks stored 14 days, 3 h prediffusion at room temperature): 17.5 mm | zone of inhibition at 360 µg/disc (MSSA T972018; [1]): 17.3 ± 0.4 mm | zone of inhibition at 360 µg/disc (MSSA T972018; [2]): 14.5 mm | zone of inhibition at 360 µg/disc (MSSA T972018; 336 h, 360 μg in 5% P80, Experiment 1, disks stored 14 days, no prediffusion): 15.5 mm | zone of inhibition at 360 µg/disc (MRSA NRS123-ORI^RS; [3]): 14 mm | zone of inhibition at 360 µg/disc (MRSA NRS123-ORI^RS; [4]): 15 mm | zone of inhibition at 360 µg/disc (MRSA NRS123-ORI^RS; [1]): 15 mm | zone of inhibition at 360 µg/disc (MRSA NRS123-ORI^RS; [2]): 14 mm | zone of inhibition at 360 µg/disc (MRSA NRS121-ORI^RS; [3]): 13 mm | zone of inhibition at 360 µg/disc (MRSA NRS121-ORI^RS; [4]): 14 mm | zone of inhibition at 360 µg/disc (MRSA NRS121-ORI^RS; [1]): 14 mm | zone of inhibition at 360 µg/disc (MRSA NRS121-ORI^RS; [2]): 13 mm | zone of inhibition at 360 µg/disc (MRSA NRS123; 360 μg in 5% P80, Average of experiments, no prediffusion, read-out: Zone diameter (mm ± SD)): 16 ± 0.4 mm | zone of inhibition at 360 µg/disc (MRSA NRS123; 360 μg in 5% P80, Average of experiments, prediffusion, read-out: Zone diameter (mm ± SD)): 18.8 ± 0.9 mm | zone of inhibition at 360 µg/disc (MRSA NRS123; 360 μg in 5% P80, Experiment 1, disks stored 14 days, 3 h prediffusion at room temperature, read-out: Zone diameter (mm ± SD)): 19.5 mm | zone of inhibition at 360 µg/disc (MRSA NRS123; 360 μg in 5% P80, Experiment 2, disks stored 8 days, 3 h prediffusion at room temperature, read-out: Zone diameter (mm ± SD)): 18 mm | zone of inhibition at 90 µg/disc (MRSA NRS123; [5]): 15.8 mm | zone of inhibition at 180 µg/disc (MRSA NRS123; [5]): 16.5 mm | zone of inhibition at 360 µg/disc (MRSA NRS123; 192 h, 360 μg in 5% P80, Experiment 2, disks stored 8 days, no prediffusion, read-out: Zone diameter (mm ± SD)): 15.8 ± 0.4 mm | zone of inhibition at 360 µg/disc (MRSA NRS123; 192 h, 360 μg oritavancin, 2.5% P80, disks stored 8 days, prediffusion, read-out: Average zone diameter): 16.8 mm | zone of inhibition at 90 µg/disc (MRSA NRS123; [6]): 16 mm | zone of inhibition at 90 µg/disc (MRSA NRS123; [7]): 15.5 mm | zone of inhibition at 180 µg/disc (MRSA NRS123; [6]): 17.3 mm | zone of inhibition at 180 µg/disc (MRSA NRS123; [7]): 17.3 mm | zone of inhibition at 360 µg/disc (MRSA NRS123; 336 h, 360 μg in 5% P80, Experiment 1, disks stored 14 days, no prediffusion, read-out: Zone diameter (mm ± SD)): 16.3 ± 0.4 mm | zone of inhibition at 360 µg/disc (MRSA NRS123; 336 h, 360 μg oritavancin, 5% P80, disks stored 14 days, prediffusion, read-out: Average zone diameter): 18.5 mm | zone of inhibition at 360 µg/disc (MRSA NRS123; 336 h, 360 μg oritavancin, 10% P80, disks stored 14 days, prediffusion, read-out: Average zone diameter): 17.5 mm | zone of inhibition at 18000 µg/mL (VISA Mu50 (ATCC 700699)): 13 mm | zone of inhibition at 1250 µg/mL (MRSA U784439): 20 mm | zone of inhibition at 1250 µg/mL (MSSA T759545): 22 mm | zone of inhibition at 1250 µg/mL (MRSA V406957): 21 mm | zone of inhibition at 1250 µg/mL (MRSA T998608): 22 mm | zone of inhibition at 1250 µg/mL (MSSA V406985): 24 mm | zone of inhibition at 1250 µg/mL (MSSA U148267): 21 mm | zone of inhibition at 1250 µg/mL (MRSA T998528): 21 mm | zone of inhibition at 1250 µg/mL (MRSA V288615): 23 mm | zone of inhibition at 25 µg/disc (MRSA ATCC 33591): 22 mm
